Reference: PubChem BioAssay AID1918936 (Molecular Pharmacology Branch, DTP, NCI, 2023)
“And” between values parts separate entries of the source, which are not always exact repeats. Equal values may be shown once.

System: 349418-098-R-PDC complex spheroid viability
Experiment: Anticancer human tumor 349418-098-R-PDC patient-derived lung adenocarcinoma cell line growth inhibition
Settings: for viability, T/C: stronger effect = lower value
Text: Multicellular complex tumor spheroid response to LSD1 Inhibitor Iadademstat in combination with a variety of drugs and investigational agents in selected tumor cell lines
The current study was undertaken to assess response to LSD1 inhibitors in combination with standard-of-care drugs and investigational agents in solid tumor complex spheroid models as well as in the K-562 leukemia. Complex spheroids include a stromal component modeled by human endothelial cells (HUVEC) and fibroblasts modeled by human mesenchymal stem cells (MSCs). The concentration ranges selected for each drug and investigational agent were based upon clinically achievable concentrations if the clinical Cmax of the agent was known.
Compounds. The drugs and investigational agents used in this study are listed on Table 1. All of the agents used, including staurosporine (NSC755774) and gemcitabine (NSC613327), were obtained from the Developmental Therapeutics Program, NCI. FDA-approved anticancer drugs are available from the NCI at http://dtp.nci.nih.gov/branches/dscb/oncology_drugset_explanation.html. Drugs and investigational agents were >95% pure by proton nuclear magnetic resonance (NMR) and liquid chromatography/mass spectrometry (LC/MS). Stock solutions were prepared at 400x in DMSO, stored at -70 degrees C, and diluted in fresh medium prior to their use. The final concentration of DMSO in cell culture wells never exceeded 0.25% (v/v). The FDA-approved anticancer drug set is available from the Developmental Therapeutics Program at https://dtp.cancer.gov/organization/dscb/obtaining/available_plates.htm. All drugs and investigational agents were tested over a range starting from a high concentration at or near the clinical Cmax and decreasing in half-log increments. If the clinical Cmax for an agent had not been determined, the highest concentration tested was 10 microM.
Cell Lines. The patient-derived cancer cell (PDC) lines: 292921-168-R-J2-PDC, K24384-001-R-PDC, and 521955-158-R2-J5-PDC pancreatic carcinomas, 556581-035-R-J1 ovarian carcinoma, 324938-238-R-J1-PDC, 855422-203-R-J1-PDC and 883617-216-R-J1-PDC urothelial bladder carcinomas, 743489-274-T-PDC renal cell carcinoma, 138582-R-J1 Merkel cell tumor, K60290-347-R-J1 and K57222-313-R-J1-PDC glioblastomas, 653999-131-R-J2-PDC, LG0703-F948-PDC, and 349418-098-R-PDC non-small cell lung carcinomas, 885512-296-R-J2-PDC, 171881-019-R-J1-PDC breast carcinomas and 186277-243-T-J2-PDC and 233499-124-R-J2-PDC colon carcinomas were obtained from the NCI Patient-Derived Models Repository (PDMR, https://pdmr.cancer.gov). The established cell lines NCI/ADR-RES (RRID:CVCL_14520 and OVCAR-5 (RRID:CVCL_1628) ovarian carcinomas, 786-O (RRID:CVCL_1051) and A498 (RRID:CVCL_A498) renal cell carcinoma, NCI-H211 (ATCC, cat. CRL-5824; RRID:CVCL_1529), NCI-H196 (ATCC, cat. CRL-5823, RRID:CVCL_1509), SW 1271 (ATCC, cat. CRL-2177, RRID:CVCL_1716) and NCI-H1876 (ATCC, cat. CRL-5902, RRID:CVCL_1503) small cell lung carcinomas, MDA-MB-231 (RRID:CVCL_0062) and MDA-MB-468 (RRID:CVCL_0419)breast carcinomas (10-12). Pooled donor human umbilical vein endothelial cells (HUVEC, Lonza, cat. CC-2519) and human mesenchymal stem cells (hMSC, Lonza, cat. PT-2501) were purchased from Lonza (Walkersville, MD).
Cell Culture. All cells were maintained in an incubator at 37 degrees C and 5% CO2 with 95% humidity. The PDC lines were cultured according to standard operating procedures established by the NCI PDMR (https://pdmr.cancer.gov). Briefly all PDCs were thawed and cultured in Matrigel-coated flasks prepared with a working solution of 1X Ham's F-12 nutrient mix, without supplementation (Invitrogen, Waltham, MA, cat. 11765054), 100 U/mL penicillin-streptomycin (Invitrogen, cat. 15140122), and 2.5% Matrigel (Corning Inc., Corning, NY, cat. 354248) for the first three passages. […]

[1] = curve of first compound, second compound 0.1 µM
[2] = curve of first compound, second compound 0.316 µM
[3] = curve of first compound, second compound 1 µM
[4] = curve of first compound, second compound 3.16 µM
[5] = curve of first compound, second compound 10 µM
[6] = second compound 0.1 µM, first compound 0.00316 µM
[7] = second compound 0.1 µM, first compound 0.01 µM
[8] = second compound 0.1 µM, first compound 0.0316 µM
[9] = second compound 0.1 µM, first compound 0.1 µM
[10] = second compound 0.1 µM, first compound 0.316 µM
[11] = second compound 0.1 µM, first compound 1 µM
[12] = second compound 0.316 µM, first compound 0.00316 µM
[13] = second compound 0.316 µM, first compound 0.01 µM
[14] = second compound 0.316 µM, first compound 0.0316 µM
[15] = second compound 0.316 µM, first compound 0.1 µM
[16] = second compound 0.316 µM, first compound 0.316 µM
[17] = second compound 0.316 µM, first compound 1 µM
[18] = second compound 1 µM, first compound 0.00316 µM
[19] = second compound 1 µM, first compound 0.01 µM
[20] = second compound 1 µM, first compound 0.0316 µM
[21] = second compound 1 µM, first compound 0.1 µM
[22] = second compound 1 µM, first compound 0.316 µM
[23] = second compound 1 µM, first compound 1 µM
[24] = second compound 3.16 µM, first compound 0.00316 µM
[25] = second compound 3.16 µM, first compound 0.01 µM
[26] = second compound 3.16 µM, first compound 0.0316 µM
[27] = second compound 3.16 µM, first compound 0.1 µM
[28] = second compound 3.16 µM, first compound 0.316 µM
[29] = second compound 3.16 µM, first compound 1 µM
[30] = second compound 10 µM, first compound 0.00316 µM
[31] = second compound 10 µM, first compound 0.01 µM
[32] = second compound 10 µM, first compound 0.0316 µM
[33] = second compound 10 µM, first compound 0.1 µM
[34] = second compound 10 µM, first compound 0.316 µM
[35] = second compound 10 µM, first compound 1 µM
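Also: spheroids exposed to agents for seven days before readout.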
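For viability, T/C in this document: 100% = DMSO vehicle control wells.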

O=C(C=Cn1cnc(-c2cc(C(F)(F)F)cc(C(F)(F)F)c2)n1)NNc1cnccn1 + NC1CC1c1ccc(-c2cccc(O)c2)cc1
IC50 [1]: < 3.16 nM
IC50 [2]: < 3.16 nM
IC50 [3]: < 3.16 nM
IC50 [4]: < 3.16 nM
IC50 [5]: < 3.16 nM
viability, T/C [6]: 21.7%
viability, T/C [7]: 13.6%
viability, T/C [8]: 8.69%
viability, T/C [9]: 4.58%
viability, T/C [10]: 3.21%
viability, T/C [11]: 2.82%
viability, T/C [12]: 23%
viability, T/C [13]: 13.6%
viability, T/C [14]: 7.36%
viability, T/C [15]: 4.45%
viability, T/C [16]: 3.04%
viability, T/C [17]: 2.89%
viability, T/C [18]: 21.3%
viability, T/C [19]: 11.7%
viability, T/C [20]: 7.13%
viability, T/C [21]: 3.94%
viability, T/C [22]: 2.88%
viability, T/C [23]: 2.59%
viability, T/C [24]: 22.3%
viability, T/C [25]: 16.3%
viability, T/C [26]: 7.41%
viability, T/C [27]: 5%
viability, T/C [28]: 3.23%
viability, T/C [29]: 2.75%
viability, T/C [30]: 11.5%
viability, T/C [31]: 11.2%
viability, T/C [32]: 7.71%
viability, T/C [33]: 5.06%
viability, T/C [34]: 2.95%
viability, T/C [35]: 2.62%

CC1COCCN1c1cc(C2(S(C)(=N)=O)CC2)nc(-c2ccnc3[nH]ccc23)n1 (configuration not stated)
viability, T/C (compound 0.0316 µM): 106% and 107%
viability, T/C (compound 0.1 µM): 91.2% and 108%
viability, T/C (compound 0.316 µM): 57% and 96.7%
viability, T/C (compound 1 µM): 14.8% and 49.8%
viability, T/C (compound 3.16 µM): 10.1% and 11.9%
viability, T/C (compound 10 µM): 10.6% and 11.5%
IC50 (curve of compound): 368 nM and 977 nM

CC1COCCN1c1cc(-c2ccnn2C)c2ccnc(-c3ccn[nH]3)c2n1 (configuration not stated) + NC1CCC(NC2CC2c2ccccc2)CC1
IC50 [1]: 13.7 nM
IC50 [2]: 16.1 nM
IC50 [3]: 11.4 nM
IC50 [4]: 9.65 nM
IC50 [5]: 8.1 nM
viability, T/C [6]: 91.5%
viability, T/C [7]: 62.6%
viability, T/C [8]: 16.8%
viability, T/C [9]: 9.57%
viability, T/C [10]: 7.39%
viability, T/C [11]: 5.98%
viability, T/C [12]: 108%
viability, T/C [13]: 71.9%
viability, T/C [14]: 18.5%
viability, T/C [15]: 9.43%
viability, T/C [16]: 6.72%
viability, T/C [17]: 6.47%
viability, T/C [18]: 98.5%
viability, T/C [19]: 54.5%
viability, T/C [20]: 16.6%
viability, T/C [21]: 9.69%
viability, T/C [22]: 7.82%
viability, T/C [23]: 5.98%
viability, T/C [24]: 98.1%
viability, T/C [25]: 48.5%
viability, T/C [26]: 14.4%
viability, T/C [27]: 8.55%
viability, T/C [28]: 6.56%
viability, T/C [29]: 5.96%
viability, T/C [30]: 90.7%
viability, T/C [31]: 40.9%
viability, T/C [32]: 14.5%
viability, T/C [33]: 7.6%
viability, T/C [34]: 6.06%
viability, T/C [35]: 5.03%

NS(=O)(=O)OCC1CC(n2ccc3c(NC4CCc5ccccc54)ncnc32)CC1O (configuration not stated) + NC1CCC(NC2CC2c2ccccc2)CC1
IC50 [1]: 67.2 nM
IC50 [2]: 86.6 nM
IC50 [3]: 93 nM
IC50 [4]: 82.3 nM
IC50 [5]: 66.6 nM
viability, T/C (second compound 0.1 µM, first compound 0.00949 µM): 99.3%
viability, T/C (second compound 0.1 µM, first compound 0.03 µM): 94.8%
viability, T/C (second compound 0.1 µM, first compound 0.0949 µM): 30.6%
viability, T/C (second compound 0.1 µM, first compound 0.3 µM): 15.2%
viability, T/C (second compound 0.1 µM, first compound 0.949 µM): 8.16%
viability, T/C (second compound 0.1 µM, first compound 3 µM): 4.47%
viability, T/C (second compound 0.316 µM, first compound 0.00949 µM): 118%
viability, T/C (second compound 0.316 µM, first compound 0.03 µM): 100%
viability, T/C (second compound 0.316 µM, first compound 0.0949 µM): 44.5%
viability, T/C (second compound 0.316 µM, first compound 0.3 µM): 16.1%
viability, T/C (second compound 0.316 µM, first compound 0.949 µM): 7.56%
viability, T/C (second compound 0.316 µM, first compound 3 µM): 4.71%
viability, T/C (second compound 1 µM, first compound 0.00949 µM): 111%
viability, T/C (second compound 1 µM, first compound 0.03 µM): 104%
viability, T/C (second compound 1 µM, first compound 0.0949 µM): 47.1%
viability, T/C (second compound 1 µM, first compound 0.3 µM): 17.1%
viability, T/C (second compound 1 µM, first compound 0.949 µM): 6.19%
viability, T/C (second compound 1 µM, first compound 3 µM): 4.32%
viability, T/C (second compound 3.16 µM, first compound 0.00949 µM): 108%
viability, T/C (second compound 3.16 µM, first compound 0.03 µM): 103%
viability, T/C (second compound 3.16 µM, first compound 0.0949 µM): 40.6%
viability, T/C (second compound 3.16 µM, first compound 0.3 µM): 22.6%
viability, T/C (second compound 3.16 µM, first compound 0.949 µM): 7.16%
viability, T/C (second compound 3.16 µM, first compound 3 µM): 4.58%
viability, T/C (second compound 10 µM, first compound 0.00949 µM): 84.9%
viability, T/C (second compound 10 µM, first compound 0.03 µM): 88.7%
viability, T/C (second compound 10 µM, first compound 0.0949 µM): 33.6%
viability, T/C (second compound 10 µM, first compound 0.3 µM): 16.6%
viability, T/C (second compound 10 µM, first compound 0.949 µM): 6.64%
viability, T/C (second compound 10 µM, first compound 3 µM): 4.12%
